Reference: publication PMC11945486, “TAS1R2/TAS1R3 Single-Nucleotide Polymorphisms Affect Sweet Taste Receptor Activation by Sweeteners: The SWEET Project” (Nutrients, 2025)
Like-named read-outs stand apart in the source and are kept apart here. No end group written: not given here.

T1: human TAS1R2-WT/TAS1R3-M110T (Homo sapiens, UniProt Q7RTX0+Q8TE23, M110T)
T1 construct: expressed in transfected cells; host or cells: HEK293T stably expressing Gα16gust44
T1 sequence (Q8TE23 20-839): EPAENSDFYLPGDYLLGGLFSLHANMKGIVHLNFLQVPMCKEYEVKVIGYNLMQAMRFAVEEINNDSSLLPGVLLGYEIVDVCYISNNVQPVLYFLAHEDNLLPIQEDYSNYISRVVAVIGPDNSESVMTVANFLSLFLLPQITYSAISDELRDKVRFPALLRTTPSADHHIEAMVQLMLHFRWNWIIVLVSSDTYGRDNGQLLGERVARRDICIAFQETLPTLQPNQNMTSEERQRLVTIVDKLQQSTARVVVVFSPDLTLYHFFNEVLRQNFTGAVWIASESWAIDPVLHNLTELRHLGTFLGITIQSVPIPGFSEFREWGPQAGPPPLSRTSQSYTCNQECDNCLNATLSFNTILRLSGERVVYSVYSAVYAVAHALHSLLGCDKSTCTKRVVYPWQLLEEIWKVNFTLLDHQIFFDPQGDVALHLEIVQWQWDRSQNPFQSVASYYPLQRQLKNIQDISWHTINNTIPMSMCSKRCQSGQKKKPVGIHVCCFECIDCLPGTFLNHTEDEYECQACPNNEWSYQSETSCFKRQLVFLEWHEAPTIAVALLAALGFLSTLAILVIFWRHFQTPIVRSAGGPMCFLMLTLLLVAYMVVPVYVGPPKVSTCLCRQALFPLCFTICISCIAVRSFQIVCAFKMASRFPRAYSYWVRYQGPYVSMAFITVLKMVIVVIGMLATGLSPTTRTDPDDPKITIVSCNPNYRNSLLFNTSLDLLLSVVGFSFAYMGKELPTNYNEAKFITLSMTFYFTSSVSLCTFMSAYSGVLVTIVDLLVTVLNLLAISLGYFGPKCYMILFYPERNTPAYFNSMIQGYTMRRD
T1 sequence (Q7RTX0 21-852 M110T): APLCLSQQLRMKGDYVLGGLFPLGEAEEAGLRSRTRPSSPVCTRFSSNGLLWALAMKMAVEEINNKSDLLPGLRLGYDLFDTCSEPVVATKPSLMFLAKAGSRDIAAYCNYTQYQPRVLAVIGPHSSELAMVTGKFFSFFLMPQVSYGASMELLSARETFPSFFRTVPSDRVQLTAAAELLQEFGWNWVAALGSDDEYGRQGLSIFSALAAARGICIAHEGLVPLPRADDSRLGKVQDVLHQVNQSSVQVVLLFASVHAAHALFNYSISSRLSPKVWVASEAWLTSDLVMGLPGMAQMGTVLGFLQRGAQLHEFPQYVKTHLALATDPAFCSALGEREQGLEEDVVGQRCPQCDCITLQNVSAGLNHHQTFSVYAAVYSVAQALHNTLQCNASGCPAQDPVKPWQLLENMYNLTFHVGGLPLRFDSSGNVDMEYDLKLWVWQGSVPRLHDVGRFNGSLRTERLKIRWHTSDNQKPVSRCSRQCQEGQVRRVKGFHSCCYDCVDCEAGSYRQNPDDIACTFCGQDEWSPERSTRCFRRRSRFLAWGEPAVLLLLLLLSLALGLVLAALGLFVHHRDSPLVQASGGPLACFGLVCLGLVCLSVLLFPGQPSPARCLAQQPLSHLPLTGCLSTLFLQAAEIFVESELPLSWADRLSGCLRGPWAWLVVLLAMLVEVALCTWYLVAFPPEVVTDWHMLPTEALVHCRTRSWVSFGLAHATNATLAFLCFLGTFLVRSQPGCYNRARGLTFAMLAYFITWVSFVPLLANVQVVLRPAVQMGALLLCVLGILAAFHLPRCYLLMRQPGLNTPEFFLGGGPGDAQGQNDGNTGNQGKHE

B1: thaumatin (protein)
chain: ATFEIVNRCSYTVWAAASKGDAALDAGGRQLNSGESWTINVEPGTKGGKIWARTDCYFDDSGSGICKTGDCGGLLRCKRFGRPPTTLAEFSLNQYGKDYIDISNIKGFNVPMDFSPTTRGCRGVRCAADIVGQCPAKLKAPGGGCNDACTVFQTSEYCCTTGKCGPTEYSRFFKRLCPDAFSYVLDKPTTVTCPGSSNYRVTFCPTA
modifications: Eight disulfides
notes: sweet-tasting plant protein, E957

Target: T1, human TAS1R2-WT/TAS1R3-M110T
Test: Calcium mobilisation assay, TAS1R2-WT with TAS1R3 variant M110T
Assay type: cell-based
Conditions: for Max ΔF/F0: maximal signal amplitude
Text: The coding sequences for TAS1R2 and TAS1R3 were commercially synthesised, and the human codon was optimised for expression in human cells. The coding sequences of human TAS1R2 and TAS1R3 were subcloned and inserted into the mammalian expression vectors pcDNA6/myc-HisA and pcDNA4/myc-HisA (Invitrogen; Thermo Fisher Scientific; Illkirch, France) between the EcoRI and NotI restriction sites, generating the plasmids pcDNA6-TAS1R2 and pcDNA4-TAS1R3, respectively. To increase protein expression in mammalian cells, an upstream start codon was used, which was a sequence called MAX, corresponding to the QBI SP163 element also described in pcDNA4-HisMax (Invitrogen; Thermo Fisher Scientific; Illkirch, France). To measure the expression level of the receptor by immunohistochemistry, we used the FLAG sequence ([…]) in the C-terminal position, which encodes the FLAG tag epitope. SNP variants of TAS1R2 and TAS1R3 were constructed based on […], respectively, using site-directed mutagenesis (Genewiz; Leipzig, Germany).
The HEK293T cells were kindly provided by Jay P. Slack (Givaudan Flavors Corporation; Cincinnati, OH, USA). HEK293T cells stably transfected with Gα16gust44 [43, 67] were seeded in poly-D-lysine-coated clear-bottom black 96-well plates (0.35 × 10^5 cells/well) in high-glucose DMEM supplemented with 2 mM GlutaMAX, 10% dialysed foetal bovine serum with penicillin/streptomycin and G418 (400 μg/mL) at 37 °C and 6.3% CO2 in a humidified atmosphere as previously reported. […] As a negative control, HEK293T cells were mock-transfected with the empty expression vector. After a further 24 h of incubation, the HEK293T cells were washed with C1 buffer (130 mM NaCl, 5 mM KCl, 10 mM HEPES pH 7.4 and 2 mM CaCl2). The 96-well plates containing the cells were then stimulated with sweet-tasting compounds. […] Different concentration ranges were tested depending on the sweet compound injected. The Ca^2+ changes were expressed as fractional changes in fluorescent light intensity: ΔF/F = (F − F0)/F0, where F was the fluorescent light intensity at each point, and F0 was the value of emitted fluorescent light prior to stimulus application. To calculate dose–response relationships, the changes in fluorescence upon stimulus application were averaged, mock-subtracted and baseline-corrected. The dose–response data obtained were adjusted using a 4-parameter logistic equation. The half-maximal effective concentrations (EC50 values) and maximal signal amplitudes were calculated using SigmaPlot software (version 15.0) (Systat Software; San Jose, CA, USA).
For in vitro calcium mobilisation assay performed on hTAS1R2-SNPs, hTAS1R3-SNPs and mTAS1R3-I60T, 6 to 7 concentrations were tested for each sweet compound, plus buffer alone. All concentration–receptor combinations were measured in duplicate, and each experiment was repeated at least 4 times (8 wells/concentration). Results were expressed for each concentration as ΔF/F mean ± SEM and represented as dose–response curves.

Row | Molecule | R1 = Variant EC50/WT EC50 | Max ΔF/F0 | EC50 (read-out: EC50) [µM] | EC50 (brazzein) [µg/mL]
1 | C=C(C)[C@@H]1CC=C(/C=N/O)CC1 [Perillartine, perillartine] | 3.0 | 1.31 ± 0.21 | 41.1 ± 19.4 | 
2 | O=S(=O)(O)NC1CCCCC1 [Cyclamate, cyclamate] |  |  | 2620 ± 98 | 
3 | C=C1C[C@@]23CC[C@H]4[C@@](C)(CCC[C@@]4(C)C(=O)O[C@@H]4O[C@H](CO)[C@@H](O)[C@H](O[C@@H]5O[C@H](CO)[C@@H](O)[C@H](O)[C@H]5O)[C@H]4O[C@@H]4O[C@H](CO)[C@@H](O)[C@H](O)[C@H]4O)[C@@H]2CC[C@]1(O[C@@H]1O[C@H](CO)[C@@H](O)[C@H](O[C@@H]2O[C@H](CO)[C@@H](O)[C@H](O)[C@H]2O)[C@H]1O[C@@H]1O[C@H](CO)[C@@H](O)[C@H](O)[C@H]1O)C3 [Rebaudioside M, rebaudioside M] | 2.6 | 0.38 ± 0.04 | 103 ± 18 | 
4 | OC[C@H]1O[C@H](O[C@]2(CCl)O[C@H](CCl)[C@@H](O)[C@@H]2O)[C@H](O)[C@@H](O)[C@H]1Cl [Sucralose] | 2.6 | 0.11 ± 0.02 | 282 ± 101 | 
5 | CC1=CC(=O)NS(=O)(=O)O1 [Acesulfame K, acesulfame K] | 1.7 | 0.20 ± 0.01 | 1060 ± 648 | 
6 | brazzein (QDKCKKVYENYPVSKCQLANQCNYDCKLDKHARSGECFYDEKRNLQCICDYCEY; ends and bridges not checked; cysteine pairing not given here; UniProt P56552 1-54, looked up) [sweet-tasting protein obtained by recombinant production using the yeast Pichia pastoris] | 2.0 | 0.68 ± 0.01 |  | 221.5 ± 11.3
7 | thaumatin | 1.6 | 0.38 ± 0.01 |  | 
8 | COC(=O)[C@H](Cc1ccccc1)NC(=O)[C@H](CC(=O)O)NCCC(C)(C)C [Neotame] | 2.2 | 0.19 ± 0.01 | 2.7 ± 0.29 | 
9 | C[C@H](CC[C@@H](O[C@@H]1O[C@H](CO[C@@H]2O[C@H](CO)[C@@H](O)[C@H](O)[C@H]2O)[C@@H](O)[C@H](O)[C@H]1O[C@@H]1O[C@H](CO)[C@@H](O)[C@H](O)[C@H]1O)C(C)(C)O)[C@H]1CC[C@@]2(C)[C@@H]3CC=C4[C@@H](CC[C@H](O[C@@H]5O[C@H](CO[C@@H]6O[C@H](CO)[C@@H](O)[C@H](O)[C@H]6O)[C@@H](O)[C@H](O)[C@H]5O)C4(C)C)[C@]3(C)[C@H](O)C[C@]12C [Mogroside V, mogroside V] | 3.0 | 0.43 ± 0.02 | 94.5 ± 8.4 | 
10 | COc1ccc(CCC(=O)c2c(O)cc(O[C@@H]3O[C@H](CO)[C@@H](O)[C@H](O)[C@H]3O[C@@H]3O[C@@H](C)[C@H](O)[C@@H](O)[C@H]3O)cc2O)cc1O [NHDC, neohesperidin dihydrochalcone] | 4.0 | 0.48 ± 0.02 | 203 ± 17.1 | 
11 | B1 |  |  | 16.3 ± 0.9 | 
